Assay results as given in patent US6852696B2, “Inhibitors of glycosaminoglycans” (The University of Texas System, priority 1999, dated 2005).
Entries after “also recorded” stand apart in the source; their conditions may differ.

Tests used:
[1] = test system: HAase (from bovine testis); test: HAase-mediated degradation of immobilized biotinylated HA; type: biochemical; conditions: 500 μg/ml pretreatment
Experimental: FIGS. 5A-C. Impact of Pep-1 on HA degradation products. (FIG. 5A) 96 well plates were coated with biotinylated-HA (0.1 μg/ml) and pretreated with 500 μg/ml of Pep-1 (open circles), RP (closed circles), or PBS alone (triangles) for 3 hours. These plates were then incubated for 30 min in the presence of HAase (from bovine testis). After extensive wash, the amounts of remaining biotinylated HA on the plates were determined by addition of streptavidin-alkaline phosphatase followed by p-nitrophenyl phosphate substrate. The % HA digestion was calculated from the optical densities. The data shown are the means+/−s.e.m.from triplicate samples analyzed with a hyperbolic model. (FIG. 5B) The impact of Pep-1 on HA digestion and on cell adhesion was examined in parallel using the HA-coated plates prepared simultaneously. Pep-1, RP, or PBS alone was added to the HA-coated plates as above and their effects on HAase-mediated HA degradation and on the adhesion of ^35S-labeled BW5147 thymoma cells were compared. […] Results are expressed as the means+/−s.e.m.from triplicate samples.
(§1) To test the impact of Pep-1 on HA degradation, the present inventors developed a 96 well-based assay in which biotinylated HA was immobilized onto the plates and treated with HAase. The amounts of HA that remained attached to the wells was then determined by addition of streptavidin-conjugated alkaline phosphatase (FIG. 5A).

B16-F10 melanoma cells = test: Local growth of s.c. inoculated B16-F10 melanoma; type: in vivo, C57BL/6 mice; conditions: 40 μg/injection locally, days 0, 3, 6; measured day 10
Experimental: FIGS. 4A-C. Impact of Pep-1 on lung metastasis of melanoma. (FIG. 4A) B16-F10 melanoma cells were suspended (4×10^5 cells/ml) in PBS containing Pep-1 monomer (2 or 3 mg/ml) (circles) or 2% DMSO alone (triangles). C57BL/6 mice received i.v. injection of these cell suspensions (500 μl/animal) and were examined for survival. Data shown are the cumulative survival curves from four independent experiments (n=37 for Pep-1 and n=20 for PBS control). […] (FIG. 4B) B16-F10 melanoma cells (1×10^5 cells/animal) were s.c. injected into the back of C57BL/6 mice. Pep-1 or RP (40 μg/injection) was injected locally into the tumor inoculation sites 0. 3. and 6 days after tumor injection. Data shown are the means+/−s.e.m. (n=10) of tumor sizes and tumor weights measured 10 days after tumor inoculation. (FIG. 4C) B16-F10 melanoma cells (2×10^5 cells/well) were cultured in the presence of the indicated concentrations of Pep-1 (closed circles) or PR (open circles). Data shown are the means+/−s.e.m.(n=3) of ^3H-thymidine uptake at 24 hr.

HA [2] = test: Adhesion of 35S-labeled BW5147 thymoma cells to HA-coated plates; type: cell-based; conditions: 500 μg/ml pretreatment
Experimental: FIGS. 1A-B. (FIG. 1A) ^35S-labeled BW5147 thymoma cells were incubated on HA-coated plates (0.1 μg/ml) that had been pretreated with the indicated peptides (500 μg/ml). Data shown are the means+/−S.D. of % binding from quadruplicate samples. (FIG. 1B) FITC-conjugated HA (0.3 μg/ml) was preincubation with the indicated peptide (500 μg/ml) and examined for binding to BW5147 thymoma cells. Data shown are the binding of FITC-conjugated HA in the presence of the indicated peptides (closed histograms) as compared to the background autofluorescence levels (open histograms).
FIGS. 5A-C. Impact of Pep-1 on HA degradation products. […] After extensive wash, the amounts of remaining biotinylated HA on the plates were determined by addition of streptavidin-alkaline phosphatase followed by p-nitrophenyl phosphate substrate. The % HA digestion was calculated from the optical densities. The data shown are the means+/−s.e.m.from triplicate samples analyzed with a hyperbolic model. […] Results are expressed as the means+/−s.e.m.from triplicate samples.
as §1

HA [3] = test: Adhesion of 35S-labeled B16-F10 melanoma cells to HA-coated plates; type: cell-based, mouse
Experimental: Three different Pep-1 derivatives were compared for their biological activities at the same concentration in terms of the molarity (150 μM) of the 16-mer Pep-1 peptide sequence. […] Data shown are the means+/−S.D. of % binding from quadruplicate samples. Asterisks indicate statistically significant differences (**p<0.01 by two-tailed Student's t-test).
FIGS. 9A-G. DC-associated HA and DC-dependent T cell proliferation. (A) DO11.10 T cells were cultured with y-irradiated splenic DC and/or OVA323-339 (2 μg/ml) in the presence of intact bPG (250 μg/ml), heat-denatured bPG, or PBS alone. Data shown are the means+/−s.d. (n=3) of ^3H-thymidine uptake. (B) DO11.10 T cells were cultured with the indicated numbers of splenic DC and OVA323-339 in the presence of Pep-1 (300 μM) (open circles), RP (closed circles), or PBS alone (squares). (C) Pep-1 (open circles) or PEG-conjugated Pep-1 (open triangles) were compared at the indicated concentrations (in terms of the molarity of the 12-mer Pep-1 sequence) for their abilities to inhibit the adhesion of ^35S-labeled B16 melanoma cells onto the HA-coated plates (Mummert et al. J. Exp. Med. 192:769-779, 2000). […] Statistically significant differences assessed by a two-tailed Student's t-test for comparing two groups or by analysis of variance (ANOVA) followed by LSD for multiple comparisons are indicated by asterisks (*P<0.05, **P<0.01).

GAHWQFNALTVR [Pep-1]
effect on HAase-mediated HA degradation [1]: failed to affect the degradation of HA substrates
effect on local growth in animals following s.c. inoculation (B16-F10 melanoma cells): no apparent effects
inhibition of BW5147 cell adhesion to HA substrate (HA [2]): blocked BW5147 cell adhesion; also recorded: significant (p<0.01 by ANOVA) inhibition of cell adhesion
blocking of B16-F10 adhesion to HA-coated plates (HA [3]): blocked efficiently
inhibition of HA-mediated cell adhesion (HA [3]; 150 μM in terms of molarity of the Pep-1 peptide sequence): only modest inhibition
